Where two headings read alike, the source gives them in different places.
Columns and labels:
Assay type in all cases: biochemical
[1] = target: Pim1 kinase (Homo sapiens, UniProt P11309); experiment: Pim1 ATP depletion assay; details: Pim1 ATP depletion assay;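 further: Luciferase-luciferin luminescence readout of residual ATP after PIM1 transfers phosphate to a peptide substrate, 40 µM ATP added, reaction run to roughly half ATP consumption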
[2] = target: Pim2 kinase (Homo sapiens, UniProt Q9P1W9); experiment: Pim2 ATP depletion assay;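 further: Luciferase-based luminescent readout of ATP remaining after PIM2 phosphorylates a BAD peptide, final 5 nM enzyme, 4 µM ATP, 10 µM peptide, 2.5% DMSO, run to roughly half ATP consumption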
[3] = target: Pim3 kinase (Homo sapiens, UniProt Q86V86); experiment: Pim3 ATP depletion assay

Sequence of Pim2 kinase (Q9P1W9 whole entry): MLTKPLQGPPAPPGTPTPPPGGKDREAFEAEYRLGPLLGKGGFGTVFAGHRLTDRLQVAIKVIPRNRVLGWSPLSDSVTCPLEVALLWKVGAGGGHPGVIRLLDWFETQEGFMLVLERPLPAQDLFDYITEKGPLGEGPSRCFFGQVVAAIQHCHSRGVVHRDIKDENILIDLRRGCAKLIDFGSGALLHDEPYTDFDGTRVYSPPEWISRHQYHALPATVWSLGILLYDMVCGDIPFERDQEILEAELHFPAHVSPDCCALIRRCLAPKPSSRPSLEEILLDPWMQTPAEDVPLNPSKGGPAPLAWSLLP
Sequence of Pim1 kinase (P11309 whole entry): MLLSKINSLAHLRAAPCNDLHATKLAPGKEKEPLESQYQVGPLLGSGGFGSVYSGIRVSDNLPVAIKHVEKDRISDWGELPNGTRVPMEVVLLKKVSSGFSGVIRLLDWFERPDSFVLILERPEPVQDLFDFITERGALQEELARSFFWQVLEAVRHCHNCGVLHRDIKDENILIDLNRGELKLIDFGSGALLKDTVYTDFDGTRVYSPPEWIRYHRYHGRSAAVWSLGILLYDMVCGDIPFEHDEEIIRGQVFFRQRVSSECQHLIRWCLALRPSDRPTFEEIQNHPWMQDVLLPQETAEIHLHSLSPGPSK

| Compound | IC50 ([1]; read-out: PIM1 IC50) [µM] | IC50 ([2]; read-out: PIM2 IC50) [µM] | IC50 ([3]; read-out: PIM3 IC50) [µM] | IC50 ([1]; read-out: IC50 (μM) PIM1) [µM] | IC50 ([2]; read-out: IC50 (μM) PIM2) [µM] | IC50 ([3]; read-out: IC50 (μM) PIM3) [µM] |
| --- | --- | --- | --- | --- | --- | --- |
| CCCOc1ccc(F)c(-c2ccc(N)c(C(=O)Nc3cnccc3N3C[C@@H](N)C[C@H](O)C3)n2)c1 [Example 581, 3-Amino-6-(2-fluoro-5-propoxy-phenyl)-pyridine-2-carboxylic acid (3-amino-5-hydroxy-3,4,5,6-tetrahydro-2H-[1,4′]bipyridinyl-3′-yl)-amide] | < 1 | < 1 | < 1 | – | – | – |
| Nc1ccc(C2CC2)nc1C(=O)Nc1cnccc1N1CCC[C@H](N)C1 [Example 638, 3-amino-N-{4-[(3S)-3-aminopiperidin-1-yl]pyridin-3-yl}-6-cyclopropyl-pyridine-2-carboxamide] | < 1 | < 1 | < 1 | – | – | – |
| Nc1cnc(-c2c(F)cccc2F)nc1C(=O)Nc1cnccc1N1C[C@H](N)C[C@H](N)C1 [Example 246, 5-Amino-2-(2,6-difluoro-phenyl)-pyrimidine-4-carboxylic acid (3,5-diamino-3,4,5,6-tetra-hydro-2H-[1,4′]bipyridinyl-3′-yl)-amide] | – | – | – | < 1 | < 1 | < 1 |
| COc1ncccc1-c1ccncc1NC(=O)c1nc(-c2ccccc2F)ccc1N [Example 611, 3-amino-6-(2-fluorophenyl)-N-(2-methoxy-3,4′-bipyridin-3′-yl)pyridine-2-carboxamide] | < 1 | < 1 | < 1 | – | – | – |
| Nc1ccc(-c2ncccc2F)nc1C(=O)Nc1cnccc1N1CCC(N)C(O)C1 (stereo not drawn) [Example 734, 5-Amino-3′-fluoro-[2,2′]bi-pyridinyl-6-carboxylic acid (4-amino-3-hydroxy-3,4,5,6-tetra-hydro-2H-[1,4′]bipyridinyl-3′-yl)-amide] | < 1 | < 1 | < 1 | – | – | – |
| Cc1nc(N)cc(-c2ccncc2NC(=O)c2nc(-c3cc(C(=O)NC(C)C)ccc3F)ccc2N)n1 [Example 273, 3-Amino-6-(2-fluoro-5-isopropylcarbamoyl-phenyl)-pyridine-2-carboxylic acid [4-(6-amino-2-methyl-pyrimidin-4-yl)-pyridin-3-yl]-amide] | – | – | – | < 1 | < 1 | < 1 |
| COc1ncccc1-c1nc(C(=O)Nc2cnccc2N2CCC[C@H](N)C2)c(N)cc1F [Example 511, 5-Amino-3-fluoro-2′-methoxy-[2,3′]bipyridinyl-6-carboxylic acid (3-amino-3,4,5,6-tetrahydro-2H-[1,4′]bipyridinyl-3′-yl)-amide] | – | – | – | < 1 | < 1 | < 1 |
| CCCOc1ccc(F)c(-c2ccc(N)c(C(=O)Nc3cnccc3-c3cc(N)nc(C)n3)n2)c1F [Example 533, 3-Amino-6-(2,6-difluoro-3-propoxy-phenyl)-pyridine-2-carboxylic acid [4-(6-amino-2-methyl-pyrimidin-4-yl)-pyridin-3-yl]-amide] | – | – | – | < 1 | < 1 | < 1 |
| Nc1ccc(-c2cccc(CN3CCOCC3)c2)nc1C(=O)Nc1cnccc1N1CCC[C@H](N)C1 [Example 566, 3-Amino-6-(3-morpholin-4-ylmethyl-phenyl)-pyridine-2-carboxylic acid (3-amino-3,4,5,6-tetrahydro-2H-[1,4′]bipyridinyl-3′-yl)-amide] | < 1 | < 1 | < 1 | – | – | – |
| COc1nc(-c2ccc(N)c(C(=O)Nc3cnccc3N3CCC[C@H](N)C3)n2)cnc1N [Example 731, 3-Amino-6-(5-amino-6-methoxy-pyrazin-2-yl)-pyridine-2-carboxylic acid (3-amino-3,4,5,6-tetrahydro-2H-[1,4′]bi-pyridinyl-3′-yl)-amide] | < 1 | < 1 | < 1 | – | – | – |
| Nc1ccc(-c2c(F)cccc2F)nc1C(=O)Nc1cnccc1-c1cc(Cl)nc(C(F)(F)F)c1 [Example 621, 3-amino-N-[2′-chloro-6′-(trifluoromethyl)-4,4′-bipyridin-3-yl]-6-(2,6-difluorophenyl)pyridine-2-carboxamide] | < 1 | < 1 | < 1 | – | – | – |
| CC(C)Oc1cncc(-c2nc(C(=O)Nc3cnccc3N3CCC[C@H](N)C3)c(N)cc2F)n1 [Example 739, 3-Amino-5-fluoro-6-(6-isopropoxy-pyrazin-2-yl)-pyridine-2-carboxylic acid (3-amino-3,4,5,6-tetrahydro-2H-[1,4′]bipyridinyl-3′-yl)-amide] | < 1 | < 1 | < 1 | – | – | – |
| NCCC(=O)N1CCN(c2ccncc2NC(=O)c2nc(-c3ccccc3F)ccc2N)CC1 [Example 251, 3-Amino-6-(2-fluoro-phenyl)-pyridine-2-carboxylic acid {4-[4-(3-amino-propionyl)-piperazin-1-yl]-pyridin-3-yl}-amide] | – | – | – | < 1 | < 1 | < 1 |
| N[C@H]1CCCN(c2ccncc2NC(=O)c2cccc(-c3nccs3)n2)C1 [Example 631, N-{4-[(3S)-3-amino-piperidin-1-yl]pyridin-3-yl}-6-(1,3-thiazol-2-yl)pyridine-2-carboxamide] | < 1 | < 1 | < 1 | – | – | – |
| CN(C)C(=O)c1ccc(F)c(-c2nc(C(=O)Nc3cnccc3N3CCC[C@H](N)C3)c(N)cc2F)c1 [Example 515, 3-Amino-6-(5-dimethylcarbamoyl-2-fluoro-phenyl)-5-fluoro-pyridine-2-carboxylic acid (3-amino-3,4,5,6-tetrahydro-2H-[1,4′]bipyridinyl-3′-yl)-amide] | – | – | – | < 1 | < 1 | < 1 |
| Nc1cc(F)c(Br)nc1C(=O)Nc1cnccc1N1CCC[C@H](N)C1 [Example 259, 3-amino-N-{4-[(3S)-3-amino-piperidin-1-yl]pyridin-3-yl}-6-bromo-5-fluoropyridine-2-carboxamide] | – | – | – | < 1 | < 1 | < 1 |
| Cc1cc(-c2ccncc2NC(=O)c2nc(-c3ccccc3F)ccc2N)nc(N)n1 [Example 626, 3-amino-N-[4-(2-amino-6-methylpyrimidin-4-yl)-pyridin-3-yl]-6-(2-fluoro-phenyl)pyridine-2-carboxamide] | < 1 | < 1 | < 1 | – | – | – |

The remaining lines, values ahead:

| IC50 ([1]; read-out: PIM1 IC50) [µM] | IC50 ([2]; read-out: PIM2 IC50) [µM] | IC50 ([3]; read-out: PIM3 IC50) [µM] | IC50 ([1]; read-out: IC50 (μM) PIM1) [µM] | IC50 ([2]; read-out: IC50 (μM) PIM2) [µM] | IC50 ([3]; read-out: IC50 (μM) PIM3) [µM] | Compound |
| --- | --- | --- | --- | --- | --- | --- |
| – | – | – | < 1 | < 1 | < 1 | Nc1ccc(-c2c(F)cccc2F)nc1C(=O)Nc1cnccc1N1CC[C@H]2OC(=O)N[C@H]2C1 [Example 302, 3-Amino-6-(2,6-difluoro-phenyl)-pyridine-2-carboxylic acid [4-(2-oxo-hexahydro-oxazolo[4,5-c]pyridin-5-yl)-pyridin-3-yl]-amide] |
| < 1 | < 1 | < 1 | – | – | – | Cc1ccc(F)c(-c2nc(C(=O)Nc3cnccc3N3CCC[C@H](N)C3)c(N)cc2F)n1 [Example 745, 5-Amino-3,3′-difluoro-6′-methyl-[2,2′]bipyridinyl-6-carboxylic acid (3-amino-3,4,5,6-tetrahydro-2H-[1,4′]bi-pyridinyl-3′-yl)-amide] |
| < 1 | < 1 | < 1 | – | – | – | Nc1ccc(-c2nccs2)nc1C(=O)Nc1cnccc1N1CCC[C@H](N)C1 [Example 632, 3-amino-N-{4-[(3S)-3-aminopiperidin-1-yl]pyridin-3-yl}-6-(1,3-thiazol-2-yl)-pyridine-2-carboxamide] |
| < 1 | < 1 | < 1 | – | – | – | CC(C)NC(=O)c1ccc(F)c(-c2ccc(N)c(C(=O)Nc3cnccc3N3CC[C@@H](F)[C@H](N)C3)n2)c1F [Example 733, 3-Amino-6-(2,6-difluoro-3-isopropylcarbamoyl-phenyl)-pyridine-2-carboxylic acid (3-amino-4-fluoro-3,4,5,6-tetra-hydro-2H-[1,4′]bipyridinyl-3′-yl)-amide] |
| < 1 | < 1 | < 1 | – | – | – | COc1ccc(-c2ccc(N)c(C(=O)Nc3cnccc3N3CCC[C@H](N)C3)n2)nc1 [Example 696, 5-Amino-5′-methoxy-[2,2′]bi-pyridinyl-6-carboxylic acid (3-amino-3,4,5,6-tetrahydro-2H-[1,4′]bipyridinyl-3′-yl)-amide] |
| < 1 | < 1 | < 1 | – | – | – | Nc1ccc(-c2ccccc2F)nc1C(=O)Nc1cnccc1N1CCCC(O)C1 (stereo not drawn) [Example 661, 3-Amino-6-(2-fluoro-phenyl)-pyridine-2-carboxylic acid (3-hydroxy-3,4,5,6-tetrahydro-2H-[1,4′]bipyridinyl-3′-yl)-amide] |
| – | – | – | < 1 | < 1 | < 1 | N#Cc1cccc(-c2ccc(N)c(C(=O)Nc3cnccc3N3CCC[C@H](N)C3)n2)c1 [Example 461, 3-Amino-6-(3-cyano-phenyl)-pyridine-2-carboxylic acid (3-amino-3,4,5,6-tetrahydro-2H-[1,4′]bipyridinyl-3′-yl)-amide] |
| – | – | – | < 1 | < 1 | < 1 | Nc1ccc(-c2c(F)ccc(OCc3ccccc3F)c2F)nc1C(=O)Nc1cnccc1N1CCC[C@H](N)C1 [Example 465, 3-Amino-6-[2,6-difluoro-3-(2-fluoro-benzyloxy)-phenyl]-pyridine-2-carboxylic acid (3-amino-3,4,5,6-tetrahydro-2H-[1,4′]bipyridinyl-3′-yl)-amide] |
| – | – | – | < 1 | < 1 | < 1 | Nc1ccc(-c2ccccc2F)nc1C(=O)Nc1cnccc1N1CCC(F)(F)C(N)C1 (stereo not drawn) [Example 254, 3-Amino-6-(2-fluoro-phenyl)-pyridine-2-carboxylic acid (3-amino-4,4-difluoro-3,4,5,6-tetra-hydro-2H-[1,4′]bipyridinyl-3′-yl)-amide] |
| – | – | – | < 1 | < 1 | < 1 | Cc1ccncc1-c1ccc(N)c(C(=O)Nc2cnccc2N2CCC[C@H](N)C2)n1 [Example 472, 5-Amino-4′-methyl-[2,3′]bi-pyridinyl-6-carboxylic acid (3-amino-3,4,5,6-tetrahydro-2H-[1,4′]bipyridinyl-3′-yl)-amide] |
